For this experiment, the target named is T1, CCR2 (Homo sapiens, UniProt P41597).
T1 sequence (P41597 1-360 isoform P41597-2): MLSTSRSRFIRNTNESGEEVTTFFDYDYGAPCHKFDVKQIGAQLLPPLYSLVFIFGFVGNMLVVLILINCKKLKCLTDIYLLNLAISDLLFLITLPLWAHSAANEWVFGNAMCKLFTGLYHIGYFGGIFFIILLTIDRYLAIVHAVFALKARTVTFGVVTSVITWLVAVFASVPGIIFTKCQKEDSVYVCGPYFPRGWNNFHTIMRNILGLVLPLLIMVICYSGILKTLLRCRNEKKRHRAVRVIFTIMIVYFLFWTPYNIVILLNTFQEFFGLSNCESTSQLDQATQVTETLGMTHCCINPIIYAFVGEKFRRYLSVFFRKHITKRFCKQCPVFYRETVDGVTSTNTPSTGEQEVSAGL
Nature of the experiment: Binding assay: inhibition of 125I-MCP-1 binding to THP-1 cells. More on the design: CCR2 is also expressed in the human monocytic cell line THP-1; endogenous in cells; host or cells: THP-1 (human monocytic cell line), whole cells. The method, then:
Antagonism of the CCR2 receptor is determined by a binding assay using the human monocytic cell line THP-1. Cells are suspended in assay buffer (RPMI+1% BSA+25 mM HEPES) at 3×10^6 cells/ml and an aliquot (180 μl) added to a 0.5 ml siliconized Eppendorf tube. […] After incubation for 1 hr at room temperature, the cell suspension is centrifuged through oil and the cell pellets counted to quantitate cell-bound ligand. Nonspecific (NS) binding of radioligand is determined by the addition of 100 nM cold MCP-1. Control binding is determined by the addition of buffer without compound.

Where [1] appears, read: THP-1 cells, 0.1 nM 125I-MCP-1, 1 hr at room temperature, read-out: Inhibition of 125I-MCP-1 binding to THP-1 cells, IC50.

Read-outs that look alike come from different tables or passages of the source.

Take `CC(=O)C1=C(O)C(=O)N(c2ccc(Cl)s2)C1C1CCCCC1` (racemic) [Compound 170, 4-acetyl-1-(5-chloro-2-thienyl)-5-cyclohexyl-3-hydroxy-1,5-dihydro-2H-pyrrol-2-one]: the IC50 – broadly, the midpoint of a concentration-inhibition curve – under setting [1] is ≤ 5 µM.
Still for that read-out and setting: the value for `CC(=O)C1=C(O)C(=O)N(c2ccc(Cl)cc2F)C1C1CCCC1` (racemic) [Compound 119, 4-acetyl-1-(4-chloro-2-fluorophenyl)-5-cyclopentyl-3-hydroxy-1,5-dihydro-2H-pyrrol-2-one] was ≤ 5 µM; that for `CC(=O)C1=C(O)C(=O)N(Cc2ccccc2)C1c1ccco1` (racemic) [Compound 8, 4-acetyl-1-benzyl-5-(2-furyl)-3-hydroxy-1,5-dihydro-2H-pyrrol-2-one] was ≤ 5 µM; that for `CC(=O)C1=C(O)C(=O)N(c2ccc(C)c(C)c2)C1C1CCCCC1` (racemic) [Compound 65, 4-acetyl-5-cyclohexyl-1-(3,4-dimethylphenyl)-3-hydroxy-1,5-dihydro-2H-pyrrol-2-one] was ≤ 5 µM.
The same measure, in the same setting: the value for `C=C1CCC(C2C(C(C)=O)=C(O)C(=O)N2c2ccc(Cl)cc2F)CC1` (racemic) [Compound 153, 4-acetyl-1-(4-chloro-2-fluorophenyl)-3-hydroxy-5-(4-methylenecyclohexyl)-1,5-dihydro-2H-pyrrol-2-one] was ≤ 5 µM; that for `CC(=O)C1=C(O)C(=O)N(c2cccc(Cl)c2)C1C1CCCCC1` (racemic) [Compound 43, 4-acetyl-1-(3-chlorophenyl)-5-cyclohexyl-3-hydroxy-1,5-dihydro-2H-pyrrol-2-one] was ≤ 5 µM; that for `CC(=O)C1=C(O)C(=O)N(c2ccc(C(C)C)cc2)C1C1CCCCC1` (racemic) [Compound 52, 4-acetyl-5-cyclohexyl-3-hydroxy-1-(4-isopropylphenyl)-1,5-dihydro-2H-pyrrol-2-one] was ≤ 5 µM.
As for `CC(=O)C1=C(S)C(=O)N(c2ccc(Cl)cc2)C1C1CCCCC1` (racemic) [Compound 157, 4-acetyl-1-(4-chlorophenyl)-5-cyclohexyl-3-mercapto-1,5-dihydro-2H-pyrrol-2-one], under setting [1], the IC50 was ≤ 5 µM.
Still for that read-out and setting: the value for `CCc1cc(N2C(=O)C(O)=C(C(C)=O)C2C2CCCCC2)ccc1Cl` (racemic) [Compound 70, 4-acetyl-1-(4-chloro-3-ethylphenyl)-5-cyclohexyl-3-hydroxy-1,5-dihydro-2H-pyrrol-2-one] was ≤ 5 µM; that for `CC(=O)C1=C(O)C(=O)N(c2ccc(C)cc2F)C1C1CCCCC1` (racemic) [Compound 54, 4-acetyl-5-cyclohexyl-1-(2-fluoro-4-methylphenyl)-3-hydroxy-1,5-dihydro-2H-pyrrol-2-one] was ≤ 5 µM.
The same measure, in the same setting: the value for `CC(=O)C1=C(O)C(=O)N(c2ccc(Cl)c(C(F)(F)F)c2)C1C1CCCCC1` (racemic) [Compound 55, 4-acetyl-1-[4-chloro-3-(trifluoromethyl)phenyl]-5-cyclohexyl-3-hydroxy-1,5-dihydro-2H-pyrrol-2-one] was ≤ 5 µM; that for `CC(=O)C1=C(O)C(=O)N(c2ccc(Cl)cc2F)[C@@H]1C1CCCC1` [Compound 129, (R)-4-acetyl-1-(4-chloro-2-fluorophenyl)-5-cyclopentyl-3-hydroxy-1,5-dihydro-2H-pyrrol-2-one] was ≤ 5 µM; that for `CC(=O)C1=C(O)C(=O)N(c2ccccc2)C1C1CCCCC1` (racemic) [Compound 23, 4-acetyl-5-cyclohexyl-3-hydroxy-1-phenyl-1,5-dihydro-2H-pyrrol-2-one] was ≤ 5 µM.
Same read-out and setting: with `CC(=O)C1=C(O)C(=O)N(Cc2ccccc2)C1C1CCCCC1` (racemic) [Compound 7, 4-acetyl-1-benzyl-5-cyclohexyl-3-hydroxy-1,5-dihydro-2H-pyrrol-2-one] the figure was ≤ 5 µM.
On to `CC(=O)C1=C(O)C(=O)N(c2ccc(C)c(Cl)c2)C1C1CCCCC1` (racemic) [Compound 59, 4-acetyl-1-(3-chloro-4-methylphenyl)-5-cyclohexyl-3-hydroxy-1,5-dihydro-2H-pyrrol-2-one], for which, under setting [1], the IC50 was ≤ 5 µM.
Regarding `CC(=O)C1=C(O)C(=O)N(c2ccc(Br)cc2F)C1C1CCCCC1` (racemic) [Compound 142, 4-acetyl-1-(4-bromo-2-fluorophenyl)-5-cyclohexyl-3-hydroxy-1,5-dihydro-2H-pyrrol-2-one], the IC50 under setting [1] was ≤ 5 µM.
With `CCCC(CCC)C1C(C(C)=O)=C(O)C(=O)N1c1ccc(C)cc1` (racemic) [Compound 39, 4-acetyl-3-hydroxy-1-(4-methylphenyl)-5-(1-propylbutyl)-1,5-dihydro-2H-pyrrol-2-one], the IC50 is ≤ 5 µM.
`CC(=O)C1=C(O)C(=O)N(c2ccc(Cl)cc2)C1C1CCC(C)CC1` (racemic) [Compound 150, 4-acetyl-1-(4-chlorophenyl)-3-hydroxy-5-(4-methylcyclohexyl)-1,5-dihydro-2H-pyrrol-2-one]: under setting [1], the IC50 was ≤ 5 µM.
With `CCCC1C(C(C)=O)=C(O)C(=O)N1c1ccc(C)c(Cl)c1` (racemic) [Compound 76, 4-acetyl-1-(3-chloro-4-methylphenyl)-3-hydroxy-5-propyl-1,5-dihydro-2H-pyrrol-2-one], the IC50 under setting [1] was ≤ 5 µM.
The same measure, in the same setting: with `CC(=O)C1=C(O)C(=O)N(c2ccc(C)c(Br)c2)C1C1CCCCC1` (racemic) [Compound 73, 4-acetyl-1-(3-bromo-4-methylphenyl)-5-cyclohexyl-3-hydroxy-1,5-dihydro-2H-pyrrol-2-one] the figure was ≤ 5 µM; with `CC(=O)C1=C(O)C(=O)N(c2cccc(C)c2)C1C1CCCCC1` (racemic) [Compound 16, 4-acetyl-5-cyclohexyl-3-hydroxy-1-(3-methylphenyl)-1,5-dihydro-2H-pyrrol-2-one], ≤ 5 µM.
The same measure, in the same setting: the value for `CC(=O)C1=C(O)C(=O)N(c2ccc(Br)cc2)C1c1ccc(Br)cc1` (racemic) [Compound 9, 4-acetyl-1,5-bis(4-bromophenyl)-3-hydroxy-1,5-dihydro-2H-pyrrol-2-one] was ≤ 5 µM.
On the same count and under the same terms, the value for `CC(=O)C1=C(O)C(=O)N(c2c(F)cc(Cl)cc2F)C1C1CCCCC1` (racemic) [Compound 120, 4-acetyl-1-(4-chloro-2,6-difluorophenyl)-5-cyclohexyl-3-hydroxy-1,5-dihydro-2H-pyrrol-2-one] was ≤ 5 µM.
Consider `COC1CCC(C2C(C(C)=O)=C(O)C(=O)N2c2ccc(Cl)cc2)CC1` (racemic) [Compound 132, 4-acetyl-1-(4-chlorophenyl)-3-hydroxy-5-(4-methoxycyclohexyl)-1,5-dihydro-2H-pyrrol-2-one], for which the IC50 under setting [1] was ≤ 5 µM.
On the same count and under the same terms, with `CC(=O)C1=C(O)C(=O)N(c2ccc(F)cc2)C1C1CCCCC1` (racemic) [Compound 25, 4-acetyl-5-cyclohexyl-1-(4-fluorophenyl)-3-hydroxy-1,5-dihydro-2H-pyrrol-2-one] the figure was ≤ 5 µM; with `Cc1ccc(N2C(=O)C(O)=C(C(N)=O)C2C2CCCCC2)cc1` (racemic) [Compound 131, 2-cyclohexyl-4-hydroxy-1-(4-methylphenyl)-5-oxo-2,5-dihydro-1H-pyrrole-3-carboxamide], ≤ 5 µM; with `CC(=O)C1=C(O)C(=O)N(c2ccc(Br)cc2)C1C1CCCCC1` (racemic) [Compound 17, 4-acetyl-1-(4-bromophenyl)-5-cyclohexyl-3-hydroxy-1,5-dihydro-2H-pyrrol-2-one], ≤ 5 µM.
On the same count and under the same terms, with `CC(=O)C1=C(O)C(=O)N(c2cccc(Br)c2)C1C1CCCCC1` (racemic) [Compound 44, 4-acetyl-1-(3-bromophenyl)-5-cyclohexyl-3-hydroxy-1,5-dihydro-2H-pyrrol-2-one] the figure was ≤ 5 µM.
Still for that read-out and setting: with `CC(=O)C1=C(O)C(=O)N(c2ccc(F)cc2)[C@@H]1C1CCCCC1` [Compound 139, (R)-4-acetyl-5-cyclohexyl-1-(4-fluorophenyl)-3-hydroxy-1,5-dihydro-2H-pyrrol-2-one] the figure was ≤ 5 µM; with `CC(=O)C1=C(O)C(=O)N(c2ccc(C)c(C)c2)C1CC(C)(C)C` (racemic) [Compound 116, 4-acetyl-1-(3,4-dimethylphenyl)-3-hydroxy-5-neopentyl-1,5-dihydro-2H-pyrrol-2-one], ≤ 5 µM; with `CC(=O)C1=C(O)C(=O)N(c2ccc(Cl)cc2)C1C1CC(C)(C)CC(C)(C)C1` (racemic) [Compound 145, 4-acetyl-1-(4-chlorophenyl)-3-hydroxy-5-(3,3,5,5-tetramethylcyclohexyl)-1,5-dihydro-2H-pyrrol-2-one], ≤ 5 µM.
As for `CC(=O)C1=C(O)C(=O)N(c2ccc(Cl)c(N)c2)C1C1CCCCC1` (racemic) [Compound 71, 4-acetyl-1-(3-amino-4-chlorophenyl)-5-cyclohexyl-3 hydroxy-1,5-dihydro-2H-pyrrol-2-one], the IC50 under setting [1] was ≤ 5 µM.
For the compound `CC(=O)C1=C(O)C(=O)N(c2ccc(C)cc2)C1CC(C)(C)C` (racemic) [Compound 78, 4-acetyl-3-hydroxy-1-(4-methylphenyl)-5-neopentyl-1,5-dihydro-2H-pyrrol-2-one], the IC50 under setting [1] was ≤ 5 µM.

Source of the values: patent US6727275B2, “Pyrrolidinone derivatives” (UCB, S.A./N.V., priority 2001, dated 2004).
